{"source": "patent US6737272B2", "about": "“Methods for modulation of oocyte activation” (The Board of Trustees of the Leland Stanford Junior …, priority 1999, dated 2004)", "molecules": {"B1": {"name": "nNOS: recombinant neuronal nitric oxide synthase from Stratagene (protein, UniProt P29475 1-1434, looked up)", "Nitric oxide synthase 1": "MEDHMFGVQQIQPNVISVRLFKRKVGGLGFLVKERVSKPPVIISDLIRGGAAEQSGLIQAGDIILAVNGRPLVDLSYDSALEVLRGIASETHVVLILRGPEGFTTHLETTFTGDGTPKTIRVTQPLGPPTKAVDLSHQPPAGKEQPLAVDGASGPGNGPQHAYDDGQEAGSLPHANGLAPRPPGQDPAKKATRVSLQGRGENNELLKEIEPVLSLLTSGSRGVKGGAPAKAEMKDMGIQVDRDLDGKSHKPLPLGVENDRVFNDLWGKGNVPVVLNNPYSEKEQPPTSGKQSPTKNGSPSKCPRFLKVKNWETEVVLTDTLHLKSTLETGCTEYICMGSIMHPSQHARRPEDVRTKGQLFPLAKEFIDQYYSSIKRFGSKAHMERLEEVNKEIDTTSTYQLKDTELIYGAKHAWRNASRCVGRIQWSKLQVFDARDCTTAHGMFNYICNHVKYATNKGNLRSAITIFPQRTDGKHDFRVWNSQLIRYAGYKQPDGSTLGDPANVQFTEICIQQGWKPPRGRFDVLPLLLQANGNDPELFQIPPELVLEVPIRHPKFEWFKDLGLKWYGLPAVSNMLLEIGGLEFSACPFSGWYMGTEIGVRDYCDNSRYNILEEVAKKMNLDMRKTSSLWKDQALVEINIAVLYSFQSDKVTIVDHHSATESFIKHMENEYRCRGGCPADWVWIVPPMSGSITPVFHQEMLNYRLTPSFEYQPDPWNTHVWKGTNGTPTKRRAIGFKKLAEAVKFSAKLMGQAMAKRVKATILYATETGKSQAYAKTLCEIFKHAFDAKVMSMEEYDIVHLEHETLVLVVTSTFGNGDPPENGEKFGCALMEMRHPNSVQEERKSYKVRFNSVSSYSDSQKSSGDGPDLRDNFESAGPLANVRFSVFGLGSRAYPHFCAFGHAVDTLLEELGGERILKMREGDELCGQEEAFRTWAKKVFKAACDVFCVGDDVNIEKANNSLISNDRSWKRNKFRLTFVAEAPELTQGLSNVHKKRVSAARLLSRQNLQSPKSSRSTIFVRLHTNGSQELQYQPGDHLGVFPGNHEDLVNALIERLEDAPPVNQMVKVELLEERNTALGVISNWTDELRLPPCTIFQAFKYYLDITTPPTPLQLQQFASLATSEKEKQRLLVLSKGLQEYEEWKWGKNPTIVEVLEEFPSIQMPATLLLTQLSLLQPRYYSISSSPDMYPDEVHLTVAIVSYRTRDGEGPIHHGVCSSWLNRIQADELVPCFVRGAPSFHLPRNPQVPCILVGPGTGIAPFRSFWQQRQFDIQHKGMNPCPMVLVFGCRQSKIDHIYREETLQAKNKGVFRELYTAYSREPDKPKKYVQDILQEQLAESVYRALKEQGGHIYVCGDVTMAADVLKAIQRIMTQQGKLSAEDAGVFISRMRDDNRYHEDIFGVTLRTYEVTNRLRSESIAFIEESKKDTDEVFSS"}}, "key": {"L. pictus eggs [1]": {"test_system": "L. pictus eggs", "test": "Egg activation by microinjection (fertilization envelope elevation, pronuclear centering)", "procedure": "(§2) Also, co-injection of SNAP or CaM/nNOS with oxyHb. […] Subsequent activation of oxyHb-inhibited eggs by ionomycin (2 μM) or injection of either GTPγS (100 μM final) or cGMP (50 μM final)."}, "L. pictus eggs [2]": {"test_system": "L. pictus eggs", "test": "Egg activation after insemination of injected eggs", "conditions": "for fertilization envelope elevation / egg activation after insemination: eggs injected with oxyHb 12.5 or 50 μM, or 50 μM BSA, apoHb, cyanometHb, 1:20,000 sperm dilution; for subsequent activation of oxyHb-inhibited eggs: after insemination, ionomycin 2 μM, GTPγS 100 μM final or cGMP 50 μM final injected", "procedure": "as §2\n(§3) The necessity of NO (or its equivalents) was assessed by injecting eggs with oxyHb."}, "NOS": {"test_system": "NOS", "conditions": "gamete homogenates; ornithine 1.5 mM, nitro-L-arginine 100 μM", "procedure": "Absorbance at 585 nm was measured and normalized to total protein. […] This diaphorase activity is indicative of NOS activity. […] NOS activity is shown measured by citrulline conversion.\nNADPH-dependent diaphorase activity or histochemical staining was assessed after a 24-h fixation of gametes. For activity measurements, gametes were lysed (sperm) or sonicated (eggs) in PBS with 1% NP-40 and incubated overnight in 1 mM NADPH, 0.5 mM NBT. Immunodepletion of diaphorase activity was done after size separation (>100K molecular weight cut-off (Amicon)). [^3H]arginine to [^3H]citrulline conversion of gamete homogenates was assessed after two cycles of freeze-thaw lysis (sperm) or Dounce homogenization (eggs) (in mM): 50 KCl, 10 NaCl, 1 EDTA, 5 DTT, 20 HEPES with PIC; pH 8. For inhibition experiments, gamete homogenates were treated with 20% (v/v) activated Dowex to remove endogenous arginine. […] NO determination by DAF fluorescence (490/515 nm) was done after incubating gametes in seawater containing 10 μM DAF."}, "bovine oocytes": {"test_system": "bovine oocytes", "test": "Calcium oscillations in bovine oocytes (fura-2 AM imaging)", "assay_type": "cell-based", "conditions": "oxyhemoglobin injected 30 to 45 minutes before sperm factor, ~200 uM final heme", "method": "Bovine oocytes were ordered from Bomed (2433 University Avenue, Madison, Wis. 53705-3835). They collect the oocytes from the ovaries of slaughtered cows and place them immediately in maturation media to be shipped overnight.\nOocytes were matured overnight and used within 24-28 hours of collection. Oocytes were washed briefly three times in TL-HEPES media and then denuded by vortexing for 3 minutes in TL-HEPES containing 0.2% hyaluronidase. Denuded oocytes were subsequently washed in TL-HEPES and loaded with fura-2 AM by incubation at 37° C. for 15 to 30 minutes. Oocytes were attached to imaging dishes (Biopteks) using 50 μg/ml poly-D-lysine and imaged using 350/380 nm excitation and 510 nm emission filters on a Zeiss Axiovert S100 microscope and fluorescence intensity quantified using Metafluor 4.1 (Universal Imaging).\nSNAP ([…]), an NO donor was synthesized prior to use by the method of Fehsel et al. (1996) Meth. Enzymol. 269:426-434. NO release was accomplished by bath addition of SNAP. Calcium release could be effectuated by addition of SNAP at varying concentrations (0.5 mM to 5 mM).\nSperm factor was prepared by the method of Wu et al. (Wu et al., 1997) and injected by a Narishige syringe microinjector to ˜2% oocyte volume. […] Calcium levels were monitored as detailed above."}, "L. pictus eggs [3]": {"test_system": "L. pictus eggs", "test": "Calcium release in eggs at fertilization measured by calcium green-2", "conditions": "oxyHb-injected eggs (14 eggs)", "procedure": "as §2, §3"}, "S. purpuratus sperm [4]": {"test_system": "S. purpuratus sperm", "test": "NO production after sperm activation, nitrite accumulation", "assay_type": "cell-based", "conditions": "5 min, 5 mM ionomycin or egg jelly, normalized to per cent acrosome reaction", "from_the_text": "(§1) We measure production of NO by gametes by accumulation of nitrite, an auto-oxidation product of NO, or by fluorescence changes in the NO indicator dye, diaminofluorescein (DAF). Qualitatively similar results are seen for exogenous NO production: activation of either male or female gametes results in NO accumulation in the surrounding medium (Table 1). […] Pre-treatment with inhibitors of the acrosome reaction, substantially prevents NO generation, but is triggered after subsequent addition of ionomycin (Table 2). Similarly, eggs activated by ionomycin treatment generate NO, although at lower levels than sperm (Table 1)."}, "S. purpuratus sperm [5]": {"test_system": "S. purpuratus sperm", "test": "NO production after sperm activation, DAF fluorescence", "assay_type": "cell-based", "conditions": "5 min, 5 mM ionomycin or egg jelly", "from_the_text": "as §1"}, "S. purpuratus eggs [6]": {"test_system": "S. purpuratus eggs", "test": "NO production after egg activation, nitrite accumulation", "assay_type": "cell-based", "conditions": "1 mM ionomycin, 5 min", "from_the_text": "as §1"}, "S. purpuratus eggs [7]": {"test_system": "S. purpuratus eggs", "test": "NO production after egg activation, DAF fluorescence", "assay_type": "cell-based", "conditions": "1 mM ionomycin, 5 min", "from_the_text": "as §1"}}, "data": [{"molecule": "[N]=O", "note": "[NO, nitric oxide]", "values": [{"measurement": "egg activation by bath application", "setting": "L. pictus eggs [1]; bath application, not injected", "result": "ineffective"}]}, {"molecule": "bovine serum albumin: a nitrosylable protein", "values": [{"measurement": "fertilization envelope elevation / egg activation after insemination", "setting": "L. pictus eggs [2]", "result": "not significantly affected"}]}, {"molecule": "N=C(NCCC[C@H](N)C(=O)O)N[N+](=O)[O-]", "note": "[NG-nitro-L-arginine]", "values": [{"measurement": "effect on citrulline conversion activity", "setting": "NOS", "result": "greatly suppresses"}]}, {"molecule": "oxyHb: oxyhemoglobin, a physiological scavenger of NO", "values": [{"measurement": "effect on sperm factor induced calcium oscillations", "setting": "bovine oocytes", "result": "inhibition"}, {"measurement": "fertilization envelope elevation / egg activation after insemination", "setting": "L. pictus eggs [2]", "result": "dose-dependently inhibited"}, {"measurement": "pronuclear centering and first cell division", "setting": "L. pictus eggs [2]; oxyHb-injected eggs after insemination", "result": "0 out of 15"}, {"measurement": "peak Ca2+ post-fertilization", "setting": "L. pictus eggs [3]; control 1.4±0.2 μM", "result": "540 ± 95", "unit": "nM"}, {"measurement": "resting Ca2+", "setting": "L. pictus eggs [3]; control 240±30 nM", "result": "280 ± 65", "unit": "nM"}, {"measurement": "egg activation by SNAP or CaM/nNOS when co-injected with oxyHb", "setting": "L. pictus eggs [1]; co-injection", "result": "does not occur"}]}, {"molecule": "recombinant nNOS with calmodulin (CaM): recombinant CaM-nNOS complexes formed by mixing CaM with nNOS", "values": [{"measurement": "pronuclear centering (eggs exhibiting a full fertilization envelope)", "setting": "L. pictus eggs [1]; injected eggs", "result": "13 out of 13"}]}, {"molecule": "C[C@H](CCC(=O)O)C[C@H](C)C[C@H](C)C(=O)/C=C(\\O)[C@H](C)C[C@H](C)C/C=C/[C@@H](C)[C@@H](O)[C@@H](C)[C@@H](O)C[C@@H]1CC[C@@](C)([C@H]2CC[C@@](C)([C@@H](C)O)O2)O1", "note": "[ionomycin]", "values": [{"measurement": "Nitrite", "setting": "S. purpuratus sperm [4]; Sperm (1 μl)", "result": "75 ± 30", "unit": "pmol"}, {"measurement": "Nitrite", "setting": "S. purpuratus sperm [4]; Sperm (5 ml)", "result": "153 ± 15", "unit": "pmol"}, {"measurement": "Nitrite", "setting": "S. purpuratus sperm [4]; Sperm (10 ml)", "result": "283 ± 15", "unit": "pmol"}, {"measurement": "DAF Fluorescence", "setting": "S. purpuratus sperm [5]; Sperm (1 μl)", "result": "103 ± 13", "unit": "arbitrary units"}, {"measurement": "DAF Fluorescence", "setting": "S. purpuratus sperm [5]; Sperm (5 ml)", "result": "543 ± 35", "unit": "arbitrary units"}, {"measurement": "DAF Fluorescence", "setting": "S. purpuratus sperm [5]; Sperm (10 ml)", "result": "910 ± 93", "unit": "arbitrary units"}, {"measurement": "Nitrite", "setting": "S. purpuratus eggs [6]; Eggs (1%, v/v)", "result": "64 ± 4", "unit": "pmol"}, {"measurement": "Nitrite", "setting": "S. purpuratus eggs [6]; Eggs (2%, v/v)", "result": "82 ± 9", "unit": "pmol"}, {"measurement": "Nitrite", "setting": "S. purpuratus eggs [6]; Eggs (5%, v/v)", "result": "141 ± 10", "unit": "pmol"}, {"measurement": "DAF Fluorescence", "setting": "S. purpuratus eggs [7]; Eggs (1%, v/v)", "result": "56 ± 10", "unit": "arbitrary units"}, {"measurement": "DAF Fluorescence", "setting": "S. purpuratus eggs [7]; Eggs (2%, v/v)", "result": "76 ± 8", "unit": "arbitrary units"}, {"measurement": "DAF Fluorescence", "setting": "S. purpuratus eggs [7]; Eggs (5%, v/v)", "result": "112 ± 6", "unit": "arbitrary units"}, {"measurement": "subsequent activation of oxyHb-inhibited eggs", "setting": "L. pictus eggs [2]", "result": "elevate fertilization envelopes"}]}, {"molecule": "Nc1nc2c(ncn2[C@@H]2O[C@@H]3COP(=O)(O)O[C@H]3[C@H]2O)c(=O)[nH]1", "note": "[cGMP]", "values": [{"measurement": "subsequent activation of oxyHb-inhibited eggs", "setting": "L. pictus eggs [2]", "result": "elevate fertilization envelopes"}]}, {"molecule": "Nc1nc2c(ncn2[C@@H]2O[C@H](COP(=O)(O)OP(=O)(O)OP(O)(O)=S)[C@@H](O)[C@H]2O)c(=O)[nH]1", "note": "[GTPS]", "values": [{"measurement": "subsequent activation of oxyHb-inhibited eggs", "setting": "L. pictus eggs [2]", "result": "elevate fertilization envelopes"}]}, {"molecule": "B1", "values": [{"measurement": "injected amount yielding activation", "setting": "L. pictus eggs [1]; recombinant nNOS, with CaM", "result": "~0.0075", "unit": "pg"}]}]}
